According to patent publication US9415049B2, “Heteroaryl compounds and uses thereof” (Celgene Avilomics Research, Inc., priority 2013, dated 2016):

Target: human recombinant full-length Btk enzyme (Homo sapiens, UniProt Q06187)
Assay: Omnia Continuous Read Kinase Assay, Btk inhibition
Format: biochemical
Set-up: human recombinant full-length Btk enzyme
Conditions: 30 minutes pre-incubation at 27° C.; 0.5 nM to 10 μM
Description: The following Example describes testing certain compounds according to the invention for inhibition of BTK activity. The Omnia® Continuous Read Kinase Assay uses an unnatural amino acid chelation enhanced fluorophore (Sox; 8-hydroxy-5-(N,N-dimethylsulfonamido)-2 methylquinoline) incorporated into a kinase-specific peptide substrate to characterize Btk enzyme kinetics and inhibition. Following Btk-mediated phosphorylation, a sensitive, highly quantifiable increase in real-time fluorescence is noted based upon the ability of chelated Mg2+ to form a bridge between Sox and the phosphate group on a tyrosine residue of the peptide substrate. The Omnia® continuous read assay was performed essentially as described by the vendor (Invitrogen; Carlsbad, Calif.). First, a 10× stock of human recombinant full-length Btk enzyme was prepared in Kinase Reaction Buffer. 5 μL of the 10× enzyme was pre-incubated with 0.5 μL of serially diluted compound prepared in 50% DMSO, in a 384-well microtiter plate for 30 minutes at 27° C. 1.13×ATP and the Tyr5-Sox conjugated peptide substrate were prepared in 1× Kinase Reaction Buffer. Kinase reactions were initiated by the addition of 45 μL of the 1.13×ATP-Sox peptide substrate master mix and monitored every 30 to 90 seconds for 60 minutes at λex360/λem485 in a Synergy plate reader. The IC50 values for each compound assayed were determined from test concentrations of 0.5 nM to 10 μM in half-log intervals performed in duplicate.
At the conclusion of each assay, progress curves from each well were examined for linear reaction kinetics and fit statistics (R2, 95% confidence interval, absolute sum of squares) using GraphPad software (GraphPad Prism version 5.01; San Diego, Calif.). Initial velocity (0 minutes to ˜30+ minutes) from each reaction was determined from the slope of a plot of relative fluorescence units versus time (minutes). Using control normalized % inhibition data, plots were constructed against inhibitor concentration to estimate IC50 from log [inhibitor] versus response using a variable slope model in GraphPad. The compound numbers correspond to the compound numbers in Table 1.

human recombinant full-length Btk enzyme, sequence (Q06187 whole entry): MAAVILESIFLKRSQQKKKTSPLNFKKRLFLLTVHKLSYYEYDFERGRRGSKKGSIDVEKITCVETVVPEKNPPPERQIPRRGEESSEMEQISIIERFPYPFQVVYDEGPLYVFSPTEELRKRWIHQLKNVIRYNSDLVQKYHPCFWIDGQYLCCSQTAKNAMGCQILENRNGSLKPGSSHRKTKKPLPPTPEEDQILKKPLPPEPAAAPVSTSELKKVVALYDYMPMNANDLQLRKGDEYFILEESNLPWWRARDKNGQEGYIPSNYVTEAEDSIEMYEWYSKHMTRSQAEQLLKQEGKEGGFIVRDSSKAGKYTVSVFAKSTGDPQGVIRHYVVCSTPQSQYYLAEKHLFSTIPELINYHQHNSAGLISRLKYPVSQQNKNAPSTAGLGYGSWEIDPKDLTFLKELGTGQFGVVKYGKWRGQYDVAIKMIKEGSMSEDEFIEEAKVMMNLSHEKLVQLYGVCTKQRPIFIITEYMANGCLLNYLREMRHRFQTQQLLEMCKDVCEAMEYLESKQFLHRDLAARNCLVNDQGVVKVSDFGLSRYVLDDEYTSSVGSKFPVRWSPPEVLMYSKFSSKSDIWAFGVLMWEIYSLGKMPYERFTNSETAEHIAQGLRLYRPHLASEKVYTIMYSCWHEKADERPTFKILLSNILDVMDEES

C=CC(=O)Nc1cccc(Nc2nc(Nc3ccc(O)cc3)ncc2F)c1 [Compound I-3, N-(3-((5-fluoro-2-((4-hydroxyphenyl)amino)pyrimidin-4-yl)amino)phenyl)acrylamide]
IC50: ≤ 10 nM

C=CC(=O)Nc1cccc(Nc2nc(Nc3ccc(OCCO)cc3)ncc2F)c1 [Compound I-1, N-(3-((5-fluoro-2-((4-(2-hydroxyethoxy)phenyl)amino)pyrimidin-4-yl)amino)phenyl)acrylamide]
IC50: ≤ 10 nM
